From ChEMBL document CHEMBL5241054, “Effective anti-aromatase therapy to battle against estrogen-mediated breast cancer: Comparative SAR/QSAR assessment on steroidal aromatase inhibitors” (Eur J Med Chem, 2020)

Molecular target: T1, Aromatase (Homo sapiens, UniProt P11511)
T1 sequence (P11511 whole entry): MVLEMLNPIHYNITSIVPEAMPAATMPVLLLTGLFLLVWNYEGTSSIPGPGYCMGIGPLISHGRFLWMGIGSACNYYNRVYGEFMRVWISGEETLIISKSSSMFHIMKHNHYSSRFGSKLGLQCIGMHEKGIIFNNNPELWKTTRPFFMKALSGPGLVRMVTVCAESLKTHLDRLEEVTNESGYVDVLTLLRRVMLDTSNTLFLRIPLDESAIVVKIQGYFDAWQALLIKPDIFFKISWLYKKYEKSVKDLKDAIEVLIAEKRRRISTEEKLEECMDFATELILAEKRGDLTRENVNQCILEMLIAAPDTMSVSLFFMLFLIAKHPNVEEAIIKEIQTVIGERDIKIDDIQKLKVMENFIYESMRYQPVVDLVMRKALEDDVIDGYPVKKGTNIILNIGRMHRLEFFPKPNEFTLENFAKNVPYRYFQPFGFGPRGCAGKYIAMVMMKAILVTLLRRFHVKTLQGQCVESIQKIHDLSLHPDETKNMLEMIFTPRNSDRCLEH

**Q.** `C[C@]12CC[C@H]3[C@@H](CC(=O)C4=CCCC[C@@]43C=O)[C@@H]1CCC2=O` was tested. Which IC50 did it give?
**A.** 5.79 µM

**Q.** Which IC50 does the source give for `CCOC1=C2C(=O)C[C@@H]3[C@H](CC[C@]4(C)C(=O)CC[C@@H]34)[C@@]2(C)CCC1=O` here?
**A.** 4.5 µM

**Q.** With `C[C@]12CC[C@H]3[C@@H](CC=C4C(=O)CCC[C@@]43CO)[C@@H]1CCC2=O` as the compound, how does the IC50 read?
**A.** 22 µM

**Q.** With `CCOC1=C[C@@]2(C)C(=CC1=O)CC[C@@H]1[C@@H]2CC[C@]2(C)C(=O)CC[C@@H]12` as the compound, how does the IC50 read?
**A.** 17.6 µM

**Q.** `CCCCC[C@H]1C[C@@H]2[C@H](CC[C@]3(C)C(=O)CC[C@@H]23)[C@@]2(C)CCC(=O)C=C12` was tested. Which IC50 did it give?
**A.** 0.4 µM

**Q.** Which IC50 does the source give for `COc1cc2c(cc1O)CC[C@@H]1[C@@H]2CC[C@]2(C)[C@@H](O)CC[C@@H]12` [2-METHOXYESTRADIOL] here?
**A.** 20 µM

**Q.** Which IC50 does the source give for `C[C@]12CCC=CC1=CC(=O)[C@@H]1[C@@H]2CC[C@]2(C)C(=O)CC[C@@H]12` here?
**A.** 1.8 µM

**Q.** How did the IC50 turn out when `C[C@]12CCC(=O)C=C1C=C(c1ccccc1)[C@@H]1[C@@H]2CC[C@]2(C)C(=O)CC[C@@H]12` was run?
**A.** 1.43 µM

**Q.** How did the IC50 turn out when `C[C@]12CCC(=O)C=C1[C@H](OC(=O)CBr)C[C@@H]1[C@@H]2CC[C@]2(C)C(=O)CC[C@@H]12` was run?
**A.** 45 µM

**Q.** For `C[C@]12C=C(O)C(=O)C=C1C(=O)C[C@@H]1[C@@H]2CC[C@]2(C)C(=O)CC[C@@H]12`, which IC50 is on record?
**A.** 5.6 µM

**Q.** `C#C[C@H](O)[C@]12CCCC=C1CC[C@@H]1[C@@H]2CC[C@]2(C)C(=O)CC[C@@H]12` was tested. Which IC50 did it give?
**A.** 61.9 µM

**Q.** For `C[C@]12CCC(=O)C=C1C[C@@H](SCCc1ccccc1)[C@@H]1[C@@H]2CC[C@]2(C)C(=O)CC[C@@H]12`, which IC50 is on record?
**A.** 0.0619 µM

**Q.** For `CC(=O)OC1CC[C@H]2[C@@H]3CCC4=CCCC[C@]4(CO)[C@H]3CC[C@]12C` (some centres undefined), which IC50 is on record?
**A.** 100 µM

**Q.** Which IC50 does the source give for `C[C@]12CCCC(=O)C1=CC[C@@H]1[C@@H]2CC[C@]2(C)C(=O)CC[C@@H]12` here?
**A.** 1.2 µM

**Q.** Which IC50 does the source give for `C[C@]12CC[C@@H]3C4CCCCC4=CC(=O)[C@H]3[C@@H]1CCC2=O` (some centres undefined) here?
**A.** 28 µM

**Q.** `CCC1=C[C@@H]2[C@H](CC[C@]3(C)C(=O)CC[C@@H]23)[C@@]2(C)C=CC(=O)C=C12` was tested. Which IC50 did it give?
**A.** 0.042 µM

**Q.** Which IC50 does the source give for `CCCC[C@@H]1C[C@@H]2[C@H](CC[C@]3(C)C(=O)CC[C@@H]23)[C@@]2(C)CCC(=O)C=C12` here?
**A.** 0.511 µM

**Q.** For `C[C@]12C=CC(=O)C=C1[C@@H](CCCCCc1ccccc1)C[C@@H]1[C@@H]2CC[C@]2(C)C(=O)CC[C@@H]12`, which IC50 is on record?
**A.** 0.33 µM

**Q.** With `C[C@]12CC[C@@H]3c4cc(Cl)c(O)cc4CC[C@H]3[C@@H]1CCC2=O` as the compound, how does the IC50 read?
**A.** 2.3 µM

**Q.** For `CCCCC[C@@H]1C[C@@H]2[C@H](CC[C@]3(C)C(=O)CC[C@@H]23)[C@@]2(C)CCCC=C12`, which IC50 is on record?
**A.** 12 µM

**Q.** With `C[C@]12C=C(CCc3ccccc3)C(=O)C=C1CC[C@@H]1[C@@H]2CC[C@]2(C)C(=O)CC[C@@H]12` as the compound, how does the IC50 read?
**A.** 2.57 µM

**Q.** `C[C@]12CC[C@@H]3c4cc([N+](=O)[O-])c(O)cc4CC[C@H]3[C@@H]1CCC2=O` was tested. Which IC50 did it give?
**A.** 15 µM

**Q.** With `C[C@]12CC[C@H]3[C@@H](CCC4=CC(=O)CC[C@@]43CO)[C@@H]1C[C@@H](O)C2=O` as the compound, how does the IC50 read?
**A.** 800 µM

**Q.** Which IC50 does the source give for `CCCCCC1=C[C@@H]2[C@H](CC[C@]3(C)C(=O)CC[C@@H]23)[C@@]2(C)C=CC(=O)C=C12` here?
**A.** 0.14 µM

**Q.** For `Cc1ccc(S(=O)(=O)N2[C@H]3[C@@H]4[C@H](CC[C@]5(C)C(=O)CC[C@@H]45)[C@@]4(C)CCC(=O)C=C4[C@H]32)cc1` (some centres undefined), which IC50 is on record?
**A.** 92.9 µM

**Q.** How did the IC50 turn out when `C[C@]12CCC(=O)C=C1C(CCc1ccccc1)=C[C@@H]1[C@@H]2CC[C@]2(C)C(=O)CC[C@@H]12` was run?
**A.** 0.092 µM

**Q.** Which IC50 does the source give for `C[C@]12CCC(=O)c3c1c(nn3Cc1ccc([N+](=O)[O-])cc1)C[C@@H]1[C@@H]2CC[C@]2(C)C(=O)CC[C@@H]12` here?
**A.** 0.658 µM

**Q.** How did the IC50 turn out when `C[C@]12CCC=CC1=CC[C@@H]1[C@@H]2CC[C@]2(C)C(O)CC[C@@H]12` (some centres undefined) was run?
**A.** 18 µM

**Q.** With `CC[C@]12CCC(=O)C=C1C(=O)C[C@@H]1[C@@H]2CC[C@]2(C)C(=O)CC[C@@H]12` as the compound, how does the IC50 read?
**A.** 2.2 µM
